In US20110044938A1 (NYCOMED GMBH, priority 2006, published 2011):

Key:
[1] = tested on: RKO (RKOp27) human colon adenocarcinoma cells; test: Alamar Blue cell viability assay, anti-proliferative/cytotoxic activity on proliferating RKO subclones; type: cell-based; settings: RKOp27, 72 h, RKO p27 uninduced (proliferating) cells, value = class bound given in Table A, read-out: −logIC50 RKO p27 uninduced (proliferating) (converted)
Method in brief: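 RKOp27 subclones (5000 cells/well) were exposed 24 h after seeding to semi-log compound dilutions in DMEM with 10% FCS, in quadruplicate, for 72 h at 37 °C. Viability was read by Alamar Blue fluorescence (544/590 nm) relative to untreated cells (1% DMSO medium). IC50 came from concentration-effect curves and is reported as −log IC50 [mol/l].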

[2] = tested on: subclones of RKO colon adenocarcinoma cells (RKOp27 or RKOp21) arrested by Ponasterone A; test: Alamar Blue cell viability assay, cell cycle specific mode of action: cells arrested by ectopic p27Kip1 induced by Ponasterone A versus proliferating cells; type: cell-based; settings: Homo sapiens, RKO p27 induced (arrested) cells, 10 μM Ponasterone A, 72 hours, value = class bound given in Table A, read-out: −logIC50 RKO p27 induced (arrested) (converted)
Method in brief: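 RKOp27 or RKOp21 cells, 15000/well in DMEM/10% FCS, either arrested by p27Kip1 induced with 10 μM Ponasterone A or proliferating without inducer; compound added after 24 h, 72 h at 37° C. Alamar Blue fluorescence (544/590 nm), viability as % of untreated cells; −log IC50 reported.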

SMILES	IC50 [1] [nM]	IC50 [2] [nM]
N#Cc1c(NC(=O)/C=C/c2cccnc2)sc2c1CCC(OC(=O)NCCc1cccnc1)C2 (stereo not shown) [Example 36, (2-Pyridin-3-yl-ethyl)-carbamic acid 3-cyano-2-((E)-3-pyridin-3-yl-allanoylamino)-4,5,6,7-tetrahydro-benzo[b]thiophen-6-yl ester]	501 to 2000	≥ 50100
CCn1nccc1CNC(=O)OC1CCc2c(sc(NC(=O)CC(C)c3cccc(OC)c3)c2C#N)C1 (stereo not shown) [Example 286, (2-Ethyl-2H-pyrazol-3-ylmethyl)-carbamic acid 3-cyano-2-[3-(3-methoxy-phenyl)-butanoylamino]-4,5,6,7-tetrahydro-benzo[b] thiophen-6-yl ester]	≤ 501	≥ 100000
Cc1ccncc1/C=C/C(=O)Nc1sc2c(c1C#N)CCC(COC(=O)N1CC(O)C1)C2 (stereo not shown) [Example 132, 3-Hydroxy-azetidine-1-carboxylic acid 3-cyano-2-[(E)-3-(4-methyl-pyridin-3-yl)-allanoylamino]-4,5,6,7-tetrahydro-benzo[b]thiophen-6-ylmethyl ester]	501 to 2000	≥ 100000
CCCNC(=O)OCC1CCc2c(sc(NC(=O)/C=C/c3cccnc3)c2C#N)C1 (stereo not shown) [Example 103, Propyl-carbamic acid 3-cyano-2-((E)-3-pyridin-3-yl-allanoylamino)-4,5,6,7-tetrahydro-benzo[b]thiophen-6-ylmethyl ester]	501 to 2000	≥ 100000
N#Cc1c(NC(=O)/C=C/c2cccnc2)sc2c1CCC(OC(=O)NCC1CCOCC1)C2 (stereo not shown) [Example 22, (Tetrahydro-pyran-4-ylmethyl)-carbamic acid 3-cyano-2-((E)-3-pyridin-3-yl-allanoylamino)-4,5,6,7-tetrahydro-benzo[b]thiophen-6-yl ester]	501 to 2000	≥ 100000
COC1CN(C(=O)OCC2CCc3c(sc(NC(=O)/C=C/c4cccnc4)c3C#N)C2)C1 (stereo not shown) [Example 115, 3-Methoxy-azetidine-1-carboxylic acid 3-cyano-2-((E)-3-pyridin-3-yl-allanoylamino)-4,5,6,7-tetrahydro-benzo[b]thiophen-6-ylmethyl ester]	501 to 2000	≥ 100000
Cc1nocc1CNC(=O)OC1CCc2c(sc(NC(=O)CC(C)c3ccccc3)c2C#N)C1 (stereo not shown) [Example 359, (3-Methyl-isoxazol-4-ylmethyl)-carbamic acid 3-cyano-2-(3-phenyl-butanoylamino)-4,5,6,7-tetrahydro-benzo[b] thiophen-6-yl ester]	≤ 501	≥ 100000
CC(CC(=O)Nc1sc2c(c1C#N)CCC(COC(=O)NCC1CCOCC1)C2)c1ccccc1 (stereo not shown) [Example 308, (Tetrahydro-pyran-4-ylmethyl)-carbamic acid 3-cyano-2-(3-phenyl-butanoylamino)-4,5,6,7-tetrahydro-benzo[b]thiophen-6-ylmethyl ester]	≤ 501	≥ 50100
CCOc1ccccc1CCC(=O)Nc1sc2c(c1C#N)CCC(OC(=O)NCc1nccs1)C2 (stereo not shown) [Example 206, Thiazol-2-ylmethyl-carbamic acid 3-cyano-2-[3-(2-ethoxy-phenyl)-propanoylamino]-4,5,6,7-tetrahydro-benzo[b]thiophen-6-yl ester]	≤ 501	≥ 100000
COc1cccc(CCC(=O)Nc2sc3c(c2C#N)CCC(OC(=O)NCc2cnn(C)c2)C3)c1 (stereo not shown) [Example 223, (1-Methyl-1H-pyrazol-4-ylmethyl)-carbamic acid 3-cyano-2-[3-(3-methoxy-phenyl)-propanoylamino]-4,5,6,7-tetrahydro-benzo[b]thiophen-6-yl ester]	≤ 501	≥ 100000
CC(CC(=O)Nc1sc2c(c1C#N)CCC(COC(=O)NC(C)c1ccnn1C)C2)c1ccccc1 (stereo not shown) [Example 318, [1-(2-Methyl-2H-pyrazol-3-yl)-ethyl]-carbamic acid 3-cyano-2-(3-phenyl-butanoylamino)-4,5,6,7-tetrahydro-benzo[b] thiophen-6-ylmethyl ester]	≤ 501	≥ 10000
